Experimental data taken from patent publication EP4497439A1, “COMPOUNDS FOR THE TREATMENT OR PREVENTION OF GOUT” (Universitat de les Illes Balears, priority 2023, dated 2025).
Read-outs that look alike come from different tables or passages of the source.

Tests used:
[1] = in vitro model of monosodium urate monohydrate (MSU) crystallization: naked eye observation and uric acid remaining in solution (phosphotungstic acid method); format: physicochemical; set-up: C100 (minimum concentration that totally prevented the formation of sodium urate crystals): unit not given here; conditions: for concentration capable of preventing the formation of MSU crystals (increased uric acid in solution) / C100 (minimum concentration that totally prevented the formation of sodium urate crystals): 5 days (120 h); for effect on the crystallization of MSU (formation of MSU crystals) / solubility of sodium urate in the tested fluid: compound 0.3 mM; for effect on the crystallization of MSU (formation of MSU crystals): uric acid 375 mg/L (2.23 mM), 6 days (144 h) plate images, 4 days uric acid in solution; for effect on the crystallization of MSU (formation of MSU crystals) / solubility of sodium urate in the tested fluid / C100 (minimum concentration that totally prevented the formation of sodium urate crystals): phosphate buffer 12 mM
[2] = doses of up to 400 mg three times a day; treatment of myopia; cited from earlier work
[3] = cited from earlier work
[4] = uric acid 375 mg/L, [Na+] 400 mM, pH 7.4

With `Cn1c(=O)[nH]c(=O)c2[nH]cnc21` [3-methylxanthine] the “concentration capable of preventing the formation of MSU crystals (increased uric acid in solution)” value [1, 4] was ≤ 50 µM, the “effect on the crystallization of MSU (formation of MSU crystals)” value (from here on “effect on the crystallization of MSU”) ([1]; [Na+] 400 mM, pH 7.4) was “strong inhibition” and the “solubility of sodium urate in the tested fluid” value (shortened to “solubility of sodium urate”) [1, 4] was “significantly increased”. For the same molecule, the “effects relative to those of 7-methylxanthine” value ([1]; same concentration) was “approximately half”.
For `Cn1c(=O)[nH]c2[nH]c(=O)[nH]c(=O)c21` [7-methyluric acid], the “effect on the crystallization of MSU” value ([1]; [Na+] 400 mM, pH 7.4) was “strong inhibition”, the “solubility of sodium urate” value [1, 4] was “significantly increased” and the “effects relative to those of 7-methylxanthine” value ([1]; same concentration) was “like those of 7-methylxanthine”.
For `Cn1cnc2[nH]c(=O)[nH]c(=O)c21` [7-methylxanthine], the toxicity [2] is listed as “do not present any toxicity”, the “formation of MSU crystals after 3 days” value ([1]; 50 µM, 100 µM and 150 µM, triplicates, uric acid 375 mg/L, [Na+] 400 mM, pH 7.4, 72 h) is listed as “completely prevented” and the “concentration capable of preventing the formation of MSU crystals (increased uric acid in solution)” value [1, 4] is listed as ≤ 50 µM. The “C100 (minimum concentration that totally prevented the formation of sodium urate crystals)” value ([1]; [UA]0 275 mg/L, [Na+] 400 mM, pH 7.4) was 10, the “C100 (minimum concentration that totally prevented the formation of sodium urate crystals)” value ([1]; [UA]0 300 mg/L, [Na+] 400 mM, pH 7.4) was 20 and the “C100 (minimum concentration that totally prevented the formation of sodium urate crystals)” value ([1]; [UA]0 340 mg/L, [Na+] 400 mM, pH 7.4) was 40. The “C100 (minimum concentration that totally prevented the formation of sodium urate crystals)” value ([1]; [UA]0 375 mg/L, [Na+] 400 mM, pH 7.4) was 60, the “C100 (minimum concentration that totally prevented the formation of sodium urate crystals)” value ([1]; [UA]0 400 mg/L, [Na+] 400 mM, pH 7.4) was 80 and the “C100 (minimum concentration that totally prevented the formation of sodium urate crystals)” value ([1]; [UA]0 425 mg/L, [Na+] 400 mM, pH 7.4) was 100. For the same molecule, the “C100 (minimum concentration that totally prevented the formation of sodium urate crystals)” value ([1]; [UA]0 450 mg/L, [Na+] 400 mM, pH 7.4) was 125, the “effect on the crystallization of MSU” value ([1]; [Na+] 400 mM, pH 7.4) was “strong inhibition” and the “solubility of sodium urate” value [1, 4] was “significantly increased”. The “crystallization inhibition compared with the other methylxanthine” value ([1]; same concentration, 5 days, uric acid 375 mg/L) was “significantly higher crystallization inhibition compared to 3-methylxanthine” and the “concentration that prevents the formation of sodium urate crystals for times longer than 48h” value ([1]; times longer than 48h) was ~6 mg/L.
For `Cn1c(=O)c2c(ncn2C)n(C)c1=O` [caffeine, 1,3,7-trimethylxanthine, reference compound], the “share metabolized to 7-methylxanthine” value ([3]; administered orally) is given as 8% and the “effect on the crystallization of MSU” value ([1]; [Na+] 400 mM, pH 7.4) is given as “does not affect”.
For `Cn1cnc2c1c(=O)[nH]c(=O)n2C` [theobromine, 3,7-dimethylxanthine, reference compound], the “share metabolized to 7-methylxanthine” value ([3]; in vivo, po) is listed as 30% and the “effect on the crystallization of MSU” value ([1]; [Na+] 400 mM, pH 7.4) is listed as “did not show any effect”.
